In US9695155B2, “Herbicidal substituted pyrimidinyloxy benzene compounds” (E. I. DU PONT DE NEMOURS AND COMPANY, priority 2013, dated 2017):

Experiments:
[1] = test system: corn; assay: Test E postemergence; assay type: in vivo, Zea mays; details: Zea mays, post-emergence
Method in brief: (§1)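 Response was scored visually on a 0-100 scale (100 = complete control) versus controls after 14 to 21 days in the greenhouse. Test chemicals, formulated with surfactant in a non-phytotoxic solvent mixture, had been applied preemergence to seeds in silt loam soil or postemergence to 1- to 4-leaf plants in potting medium.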

[2] = test system: arrowleaf sida; assay: Test E postemergence; assay type: in vivo, Sida rhombifolia; details: Sida rhombifolia, post-emergence, read-out: Plant response rating, Arrowleaf Sida
Method in brief: as §1

[3] = test system: blackgrass; assay: Test D preemergence; assay type: in vivo, Alopecurus myosuroides; details: Alopecurus myosuroides, pre-emergence
Method in brief: (§2)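 In a controlled growth environment, treated and control plants were held 7 to 21 days, then compared visually. Damage was scored 0–100, where 100 means complete control. Sprays contained surfactant in a non-phytotoxic solvent; post-applied plants were at the 1- to 4-leaf stage.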

[4] = test system: palmer pigweed; assay: Test E postemergence; assay type: in vivo, Amaranthus palmeri; details: post-emergence, read-out: Plant response rating, Pigweed, Palmer
Method in brief: as §1

[5] = test system: speedwell; assay: Test D postemergence; assay type: in vivo, Veronica persica; details: Veronica persica, post-emergence
Method in brief: as §2

[6] = test system: wild buckwheat; assay: Test D preemergence; assay type: in vivo, Polygonum convolvulus; details: Fallopia convolvulus, pre-emergence
Method in brief: as §2

[7] = test system: chickweed; assay: Test D postemergence; assay type: in vivo, Stellaria media; details: Stellaria media, post-emergence
Method in brief: as §2

[8] = test system: wild mustard; assay: Test D postemergence; assay type: in vivo, Sinapis arvensis; details: Brassica, post-emergence
Method in brief: as §2

[9] = test system: galium; assay: Test D postemergence; assay type: in vivo, Galium aparine; details: Galium, post-emergence
Method in brief: as §2

[10] = test system: deadnettle; assay: Test D postemergence; assay type: in vivo, Lamium amplexicaule; details: Lamium amplexicaule, post-emergence
Method in brief: as §2

[11] = test system: kochia; assay: Test D preemergence; assay type: in vivo, Kochia scoparia; details: Bassia scoparia, pre-emergence
Method in brief: as §2

[12] = test system: deadnettle; assay: Test D preemergence; assay type: in vivo, Lamium amplexicaule; details: Lamium amplexicaule, pre-emergence
Method in brief: as §2

[13] = test system: lambsquarters; assay: Test D preemergence; assay type: in vivo, Chenopodium album; details: Chenopodium album, pre-emergence
Method in brief: as §2

[14] = test system: lambsquarters; assay: Test D postemergence; assay type: in vivo, Chenopodium album; details: Chenopodium album, post-emergence
Method in brief: as §2

[15] = Postemergence, 31 g ai/ha, scale 0 to 100
[16] = Postemergence, 62 g ai/ha, scale 0 to 100
[17] = Postemergence, 125 g ai/ha, scale 0 to 100
[18] = postemergence, 8 g ai/ha, scale 0 to 100, 0 no effect, 100 complete control
[19] = postemergence, 16 g ai/ha, scale 0 to 100, 0 no effect, 100 complete control

Clc1cnc(Oc2ccccc2-n2cc(Br)cn2)nc1 [Compound 7, 2-[2-(4-bromo-1H-pyrazol-1-yl)phenoxy]-5-chloropyrimidine]
corn plant response (injury) rating, 0-100 at 31 g/ha [1, 15]: 0%
corn plant response (injury) rating, 0-100 at 62 g/ha [1, 16]: 10%
corn plant response (injury) rating, 0-100 at 125 g/ha [1, 17]: 5%
corn plant response (injury) rating, 0-100 at 8 g/ha [1, 18]: 0%
corn plant response (injury) rating, 0-100 at 16 g/ha [1, 19]: 0%
pest or weed control at 31 g/ha [2, 15]: 80%
pest or weed control at 62 g/ha [2, 16]: 90%
pest or weed control at 125 g/ha [2, 17]: 95%
pest or weed control at 8 g/ha [2, 18]: 65%
pest or weed control at 16 g/ha [2, 19]: 75%
pest or weed control at 16 g/ha ([3]; 16 g ai/ha, scale 0 (no effect) to 100 (complete control), read-out: Plant response rating, Blackgrass): 0%
pest or weed control at 31 g/ha ([3]; 31 g ai/ha, scale 0-100, read-out: Plant response rating, Blackgrass): 0%
pest or weed control at 62 g/ha ([3]; 62 g ai/ha, scale 0-100, read-out: Plant response rating, Blackgrass): 0%
pest or weed control at 125 g/ha ([3]; 125 g ai/ha, scale 0-100, read-out: Plant response rating, Blackgrass): 0%
pest or weed control at 250 g/ha ([3]; 250 g ai/ha, scale 0-100, read-out: Plant response rating, Blackgrass): 15%
pest or weed control at 31 g/ha [4, 15]: 50%
pest or weed control at 62 g/ha [4, 16]: 75%
pest or weed control at 125 g/ha [4, 17]: 85%
pest or weed control at 8 g/ha [4, 18]: 40%
pest or weed control at 16 g/ha [4, 19]: 60%
pest or weed control at 16 g/ha ([5]; 16 g ai/ha, scale 0-100, read-out: Plant response rating, Speedwell): 30%
pest or weed control at 31 g/ha ([5]; 31 g ai/ha, scale 0 to 100 (0 no effect, 100 complete control), read-out: Plant response rating, Speedwell): 70%
pest or weed control at 62 g/ha ([5]; 62 g ai/ha, scale 0 to 100 (0 no effect, 100 complete control), read-out: Plant response rating, Speedwell): 100%
pest or weed control at 125 g/ha ([5]; 125 g ai/ha, scale 0 to 100 (0 no effect, 100 complete control), read-out: Plant response rating, Speedwell): 100%
pest or weed control at 250 g/ha ([5]; 250 g ai/ha, scale 0 to 100 (0 no effect, 100 complete control), read-out: Plant response rating, Speedwell): 100%
pest or weed control at 16 g/ha ([6]; 16 g ai/ha, scale 0 (no effect) to 100 (complete control), read-out: Plant response rating, Buckwheat, Wild): 0%
pest or weed control at 31 g/ha ([6]; 31 g ai/ha, scale 0-100, read-out: Plant response rating, Buckwheat, Wild): 0%
pest or weed control at 62 g/ha ([6]; 62 g ai/ha, scale 0-100, read-out: Plant response rating, Buckwheat, Wild): 75%
pest or weed control at 125 g/ha ([6]; 125 g ai/ha, scale 0-100, read-out: Plant response rating, Buckwheat, Wild): 80%
pest or weed control at 250 g/ha ([6]; 250 g ai/ha, scale 0-100, read-out: Plant response rating, Buckwheat, Wild): 90%
pest or weed control at 16 g/ha ([7]; 16 g ai/ha, scale 0-100, read-out: Plant response rating, Chickweed): 10%
pest or weed control at 31 g/ha ([7]; 31 g ai/ha, scale 0 to 100 (0 no effect, 100 complete control), read-out: Plant response rating, Chickweed): 10%
pest or weed control at 62 g/ha ([7]; 62 g ai/ha, scale 0 to 100 (0 no effect, 100 complete control), read-out: Plant response rating, Chickweed): 20%
pest or weed control at 125 g/ha ([7]; 125 g ai/ha, scale 0 to 100 (0 no effect, 100 complete control), read-out: Plant response rating, Chickweed): 60%
pest or weed control at 250 g/ha ([7]; 250 g ai/ha, scale 0 to 100 (0 no effect, 100 complete control), read-out: Plant response rating, Chickweed): 80%
pest or weed control at 16 g/ha ([8]; 16 g ai/ha, scale 0-100, read-out: Plant response rating, Mustard, Wild): 20%
pest or weed control at 31 g/ha ([8]; 31 g ai/ha, scale 0 to 100 (0 no effect, 100 complete control), read-out: Plant response rating, Mustard, Wild): 50%
pest or weed control at 62 g/ha ([8]; 62 g ai/ha, scale 0 to 100 (0 no effect, 100 complete control), read-out: Plant response rating, Mustard, Wild): 75%
pest or weed control at 125 g/ha ([8]; 125 g ai/ha, scale 0 to 100 (0 no effect, 100 complete control), read-out: Plant response rating, Mustard, Wild): 95%
pest or weed control at 250 g/ha ([8]; 250 g ai/ha, scale 0 to 100 (0 no effect, 100 complete control), read-out: Plant response rating, Mustard, Wild): 98%
pest or weed control at 16 g/ha ([9]; 16 g ai/ha, scale 0-100, read-out: Plant response rating, Galium): 20%
pest or weed control at 31 g/ha ([9]; 31 g ai/ha, scale 0 to 100 (0 no effect, 100 complete control), read-out: Plant response rating, Galium): 40%
pest or weed control at 62 g/ha ([9]; 62 g ai/ha, scale 0 to 100 (0 no effect, 100 complete control), read-out: Plant response rating, Galium): 70%
pest or weed control at 125 g/ha ([9]; 125 g ai/ha, scale 0 to 100 (0 no effect, 100 complete control), read-out: Plant response rating, Galium): 80%
pest or weed control at 250 g/ha ([9]; 250 g ai/ha, scale 0 to 100 (0 no effect, 100 complete control), read-out: Plant response rating, Galium): 90%
pest or weed control at 16 g/ha ([10]; 16 g ai/ha, scale 0-100, read-out: Plant response rating, Deadnettle): 10%
pest or weed control at 31 g/ha ([10]; 31 g ai/ha, scale 0 to 100 (0 no effect, 100 complete control), read-out: Plant response rating, Deadnettle): 10%
pest or weed control at 62 g/ha ([10]; 62 g ai/ha, scale 0 to 100 (0 no effect, 100 complete control), read-out: Plant response rating, Deadnettle): 20%
pest or weed control at 125 g/ha ([10]; 125 g ai/ha, scale 0 to 100 (0 no effect, 100 complete control), read-out: Plant response rating, Deadnettle): 30%
pest or weed control at 250 g/ha ([10]; 250 g ai/ha, scale 0 to 100 (0 no effect, 100 complete control), read-out: Plant response rating, Deadnettle): 40%
pest or weed control at 16 g/ha ([11]; 16 g ai/ha, scale 0 (no effect) to 100 (complete control), read-out: Plant response rating, Kochia): 0%
pest or weed control at 31 g/ha ([11]; 31 g ai/ha, scale 0-100, read-out: Plant response rating, Kochia): 0%
pest or weed control at 62 g/ha ([11]; 62 g ai/ha, scale 0-100, read-out: Plant response rating, Kochia): 0%
pest or weed control at 125 g/ha ([11]; 125 g ai/ha, scale 0-100, read-out: Plant response rating, Kochia): 0%
pest or weed control at 250 g/ha ([11]; 250 g ai/ha, scale 0-100, read-out: Plant response rating, Kochia): 70%
pest or weed control at 16 g/ha ([12]; 16 g ai/ha, scale 0 (no effect) to 100 (complete control), read-out: Plant response rating, Deadnettle): 0%
pest or weed control at 31 g/ha ([12]; 31 g ai/ha, scale 0-100, read-out: Plant response rating, Deadnettle): 0%
pest or weed control at 62 g/ha ([12]; 62 g ai/ha, scale 0-100, read-out: Plant response rating, Deadnettle): 10%
pest or weed control at 125 g/ha ([12]; 125 g ai/ha, scale 0-100, read-out: Plant response rating, Deadnettle): 20%
pest or weed control at 250 g/ha ([12]; 250 g ai/ha, scale 0-100, read-out: Plant response rating, Deadnettle): 80%
pest or weed control at 16 g/ha ([13]; 16 g ai/ha, scale 0 (no effect) to 100 (complete control), read-out: Plant response rating, Lambsquarters): 0%
pest or weed control at 31 g/ha ([13]; 31 g ai/ha, scale 0-100, read-out: Plant response rating, Lambsquarters): 0%
pest or weed control at 62 g/ha ([13]; 62 g ai/ha, scale 0-100, read-out: Plant response rating, Lambsquarters): 30%
pest or weed control at 125 g/ha ([13]; 125 g ai/ha, scale 0-100, read-out: Plant response rating, Lambsquarters): 40%
pest or weed control at 250 g/ha ([13]; 250 g ai/ha, scale 0-100, read-out: Plant response rating, Lambsquarters): 60%
pest or weed control at 16 g/ha ([14]; 16 g ai/ha, scale 0-100, read-out: Plant response rating, Lambsquarters): 70%
pest or weed control at 31 g/ha ([14]; 31 g ai/ha, scale 0 to 100 (0 no effect, 100 complete control), read-out: Plant response rating, Lambsquarters): 70%
pest or weed control at 62 g/ha ([14]; 62 g ai/ha, scale 0 to 100 (0 no effect, 100 complete control), read-out: Plant response rating, Lambsquarters): 80%
pest or weed control at 125 g/ha ([14]; 125 g ai/ha, scale 0 to 100 (0 no effect, 100 complete control), read-out: Plant response rating, Lambsquarters): 90%
pest or weed control at 250 g/ha ([14]; 250 g ai/ha, scale 0 to 100 (0 no effect, 100 complete control), read-out: Plant response rating, Lambsquarters): 100%
